# Results reported in patent US20220412956A1, “METHODS FOR ASSESSING TOXICITY OF A COMPOUND” (The Chinese University of Hong Kong, priority 2021, published 2022).
# Entries after “also recorded” stand apart in the source; their conditions may differ. Where two headings read alike, the source gives them in different places.
# Experiments:
# [1] = target: human mitochondrial RNA polymerase (Homo sapiens, UniProt O00411); conditions: purified enzyme; cited from earlier work
# [2] = tested on: hiPSC-CMs
# [3] = tested on: hiPSC-CMs; assay: Mitochondrial morphology, Mitotracker staining (elongated / punctate / perinuclear); parameters: perinuclear mitochondria: dose or concentration left out as unconfirmed; conditions: for mitochondrial morphology (MTDR dye): FIG. 8B, treated CMs vs control; for proportion of cells with punctate, fragmented mitochondria / proportion of punctate mitochondria / proportion of elongated mitochondria: 3 days; for proportion of cells with punctate, fragmented mitochondria: control 21.0±5.9%; for proportion of cells with punctate mitochondria / elongated mitochondria: 3 days hypoxic treatment + 3 days recovery; for proportion of cells with punctate mitochondria: control 46.1±[…]; for elongated mitochondria: control 47.4±4.9%; for proportion of punctate mitochondria / proportion of elongated mitochondria: hypoxic; for proportion of punctate mitochondria: control 37.3±6.1%; for proportion of elongated mitochondria: control 45.1±7.8%; for proportion of cells with healthy elongated mitochondria: FIG. 8C
# [4] = cited from earlier work
# [5] = tested on: HT29, HCT116, HepG2 and PLC/PRF/5; conditions: high doses of 10 or 20 μM; cited from earlier work
# [6] = tested on: hiPSC-CMs; remark: listed apart in the source
# [7] = tested on: hPSC-CMs; conditions: cited from earlier work
# [8] = tested on: hiPSC-CMs; assay: Mitochondrial mass, mitotracker dye (MTDR) intensity; type: cell-based, human; conditions: 0.1-12.5 μM, 3 days, normoxic and hypoxic
# Method: (§1) Cells were incubated with Mitotracker Deep Red FM dye (200 nM; Thermo Fisher Scientific) and Hoescht 33342 dye (5 μg/ml; Thermo Fisher Scientific) for 30 min at 37° C., after which they were fixed with 4% paraformaldehyde at room temperature for 15 min followed by 15 min wash with PBS and imaged with a Leica THUNDER Imager microscope or Nikon AIR HD25 confocal microscope.
# The first consisted of densely organised, elongated mitochondrial networks spread throughout the cytoplasm and this is considered to represent a healthy balance of fission and fusion. The second had punctate, fragmented mitochondria consistent with increased fission.
# [9] = cited from earlier work; for peak plasma concentration: healthy adult volunteers; for Cmax: healthy volunteers, read-out: Cmax / peak plasma concentration
# [10] = tested on: hiPSC-CMs; assay: In vitro hiPSC-CM cardiotoxicity model, overall; type: cell-based, human; conditions: 0.1 μM and 0.5 μM
# Text: Importantly, these changes persisted and worsened after the withdrawal of this drug.
# Human iPSC-CMs were exposed to remdesivir under normal and hypoxic conditions for three days. There is a paucity of data which directly correlates oxygen saturation in vivo with oxygen concentration in vitro. […] Human iPSC-CMs exposed to 2.5% 02 were viable, beat and were morphologically indistinguishable from hiPSC-CMs cultured under normoxic (20% 02) conditions.
# Importantly, these abnormalities persisted after cessation of treatment, culminating in increased cell death.
# [11] = tested on: hiPSC-CMs; assay: Mitochondrial membrane potential (Δψm), TMRE; type: cell-based, human; conditions: 3 days, treated vs control
# Method: Δψm was measured using the tetramethylrhodamine, ethyl ester (TMRE), a potentiometric dye whose fluorescent intensity is proportional to the mitochondrial potential. CMs were plated into Matrigel-coated surfaces in RPMI/B27 medium. Cells were incubated with TMRE (25 nM; Thermo Fisher Scientific) for 30 min at 37° C., after which they were washed with DPBS and intensity of fluorescence was measured using the Synergy HTX plate-reader (Biotek, Winooski, Vt.) with excitation and emission wavelengths of 540 nm and 590 nm.
# [12] = tested on: hiPSC-CMs; conditions: human
# [13] = tested on: hiPSC-CMs; assay: Nuclear condensation / nuclear morphology / cell number, Hoescht staining; type: cell-based, human
# Method: as §1
# Similarly, nuclei were scored as normal (relatively large nuclei with regular shape) or condensed (intensely stained nuclei with irregular shape) by a technician blinded to the identities of the samples.
# Nuclear condensation is a sign of apoptosis and manifest as brightly-stained, small and ‘condensed’ nuclei.
# [14] = tested on: hiPSC-CMs; remark: listed apart in the source
# [15] = tested on: ND1, ND5, SDHA, COX6A2, ATP6, ACADVL mRNA; assay: qRT-PCR of genes important for mitochondrial function; type: cell-based, human; conditions: 3 days, normoxic or hypoxic, normalised to B2M
# Method: Total RNA was extracted using Trizol Reagent according to the manufacturer's instructions (Thermo Fisher Scientific). Extracted RNA was reverse transcribed using PrimeScript RT Master Mix (Takara). Quantitative RT-PCR of target genes was performed with GoTaq® qPCR Master Mix (Promega) using an QuantStudio™ 12K Flex. Gene transcript abundance was normalised to B2M and then to that of the untreated sample to control for biological variations among the different sets of samples.
# Of the ETC genes, ND1, ND5 and ATP6 are encoded by the mitochondrial genome, while COX6A2 and SDHA are encoded by the nuclear genome. […] Overall, the general repression of ETC gene transcripts was consistent with and might contribute to the reduced redox potential observed (FIG. 1A).
# [16] = co-treatment with 12.5 μM remdesivir
# human mitochondrial RNA polymerase, sequence (O00411 42-1230): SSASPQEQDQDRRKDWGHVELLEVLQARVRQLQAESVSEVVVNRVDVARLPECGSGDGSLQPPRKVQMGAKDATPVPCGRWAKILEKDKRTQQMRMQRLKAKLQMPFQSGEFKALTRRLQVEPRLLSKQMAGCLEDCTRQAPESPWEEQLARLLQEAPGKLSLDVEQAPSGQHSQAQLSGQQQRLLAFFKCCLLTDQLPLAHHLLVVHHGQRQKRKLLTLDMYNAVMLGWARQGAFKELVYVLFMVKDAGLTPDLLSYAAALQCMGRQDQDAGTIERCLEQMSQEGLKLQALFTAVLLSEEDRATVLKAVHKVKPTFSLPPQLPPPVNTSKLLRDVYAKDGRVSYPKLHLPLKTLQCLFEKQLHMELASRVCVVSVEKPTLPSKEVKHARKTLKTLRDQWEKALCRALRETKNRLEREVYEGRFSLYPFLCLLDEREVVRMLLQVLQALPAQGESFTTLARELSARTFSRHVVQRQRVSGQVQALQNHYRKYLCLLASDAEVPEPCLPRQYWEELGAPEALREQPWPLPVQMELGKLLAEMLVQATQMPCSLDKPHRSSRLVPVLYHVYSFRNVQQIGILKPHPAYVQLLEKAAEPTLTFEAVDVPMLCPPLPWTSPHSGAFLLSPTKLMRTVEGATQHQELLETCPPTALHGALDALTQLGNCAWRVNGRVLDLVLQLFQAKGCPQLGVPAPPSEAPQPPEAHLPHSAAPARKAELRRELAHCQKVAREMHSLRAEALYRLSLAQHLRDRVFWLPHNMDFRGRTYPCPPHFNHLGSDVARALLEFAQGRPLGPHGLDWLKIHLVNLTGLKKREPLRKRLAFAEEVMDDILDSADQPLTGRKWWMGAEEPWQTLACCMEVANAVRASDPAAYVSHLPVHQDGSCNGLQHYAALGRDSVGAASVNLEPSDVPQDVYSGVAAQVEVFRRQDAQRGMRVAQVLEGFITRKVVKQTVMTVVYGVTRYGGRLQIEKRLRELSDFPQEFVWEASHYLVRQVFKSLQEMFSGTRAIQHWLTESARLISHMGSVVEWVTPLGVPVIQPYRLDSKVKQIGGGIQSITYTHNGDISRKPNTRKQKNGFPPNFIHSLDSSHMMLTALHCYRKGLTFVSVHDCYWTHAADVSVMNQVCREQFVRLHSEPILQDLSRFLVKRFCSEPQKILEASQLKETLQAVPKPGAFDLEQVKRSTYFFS
compound,measurement,setting,value
N#C[C@@]1(c2ccc3c(N)ncnn23)O[C@H](COP(=O)(O)OP(=O)(O)OP(=O)(O)O)[C@@H](O)[C@H]1O [remdesivir-triphosphate],selectivity value (discrimination against the analogue),[1],~500 fold
NC(=O)c1ncn([C@@H]2O[C@H](CO)[C@@H](O)[C@H]2O)n1 [ribavirin],proportion of cells with healthy elongated mitochondria,[2],did not have noticeable effect
same,mitochondrial morphology (MTDR dye),[3],primarily had elongated mitochondria
CCC(CC)COC(=O)[C@H](C)N[P@](=O)(OC[C@H]1O[C@@](C#N)(c2ccc3c(N)ncnn23)[C@H](O)[C@@H]1O)Oc1ccccc1 [remdesivir],rate of cardiac death,"[4]; WHO Solidarity trial, comparator 0.4%",0.3%
same,serious atrial fibrillation,"[4]; one clinical study, placebo 0.2%",0.9%
same,risk of cardiac arrest,"[4]; one clinical study, placebo 1.4%",1.9%
same,mitochondrial toxicity,[5],demonstrated
same,sarcomeric arrangement,"[6]; 0.5 μM, 3 days, hypoxia",induced the thinning and truncation of myofibrils
same,sarcomeric arrangement,"[6]; 2.5 μM and 12.5 μM, 3 days treatment + 3 days recovery",disorganised sarcomeric arrangement
same,sarcomeric arrangement,"[6]; 0.1 and 0.5 μM, 3 days, normoxic",did not have any noticeable effect
same,sarcomeric arrangement,"[6]; 2.5 and 12.5 μM, 3 days, normoxic and hypoxic",greatly disorganised myofibrils
same,QT intervals,[7],prolong QT intervals
same,mitochondrial mass,[8],not statistically different
same,peak plasma concentration,[9]; day 1 (200 mg),5.4 µg/mL
same,peak plasma concentration,[9]; day 5,2.6 µg/mL
same,Cmax,[9]; day 1 (200 mg),8.9 µM
same,Cmax,[9]; day 5,4.3 µM
same,persistent functional alterations,[10],did not induce persistent functional alterations
same,depolarisation of mitochondrial membrane potential (Δψm),[11],No statistically significant decrease
same,spontaneous firing frequency,[12],0.36±0.07 Hz
same,proportion of condensed nuclei,"[13]; 2.5 μM and 12.5 μM, three days after treatment (recovery)",dose dependent increase
same,cell number,"[13]; 3 days, all samples",No significant difference
same,number / proportion of cells with condensed nuclei,[13]; immediately after 3 days of treatment,did not reveal any significant increase; also recorded: no statistically significant difference
same,effect on redox potential,"[14]; 0.1 μM and 0.5 μM, 3 days, normoxic and hypoxic",negligible effects
same,decrease of redox potential,"[14]; 2.5 μM, 3 days hypoxic treatment + 3 days recovery without drug",41.0±8.7%
same,decrease of redox activity,"[14]; 2.5 μM, 3 days, hypoxic (2.5% O2)",22.5±5.4%
same,decrease of redox activity,"[14]; 2.5 μM, 3 days, normoxic",21.0±3.9%
same,decrease of redox potential,"[14]; 12.5 μM, 3 days hypoxic treatment + 3 days recovery without drug",54.6±8.5%
same,decrease of redox potential,"[14]; 12.5 μM, 3 days normoxic treatment + 3 days recovery without drug",44.1±8.1%
same,decrease of redox activity,"[14]; 12.5 μM, 3 days, hypoxic (2.5% O2)",28.7±6.9%
same,decrease of redox activity,"[14]; 12.5 μM, 3 days, normoxic",35.9±4.0%
same,"mitochondrial morphology, treated vs control","[3]; 0.5 μM, 3 days treatment + 3 days recovery",no significant difference
same,"proportion of cells with punctate, fragmented mitochondria","[3]; 0.5 μM, normoxic",44.4±7.1%
same,proportion of cells with punctate mitochondria,[3]; 2.5 μM,66.1±1.1%
same,elongated mitochondria,[3]; 2.5 μM,19.7±2.5%
same,proportion of punctate mitochondria,[3]; 2.5 μM,64.4±4.1%
same,proportion of elongated mitochondria,[3]; 2.5 μM,18.7±3.0%
same,"proportion of cells with punctate, fragmented mitochondria","[3]; 2.5 μM, normoxic",57.3±7.2%
same,proportion of cells with punctate mitochondria,[3]; 12.5 μM,65.5±6.6%
same,elongated mitochondria,[3]; 12.5 μM,4.6±2.1%
same,proportion of cells with perinuclear mitochondria,"[3]; 12.5 μM, 3 days treatment + 3 days recovery (follows the hypoxic data), control 6.5±1.5%",29.9±5.7%
same,proportion of punctate mitochondria,[3]; 12.5 μM,58.9±8%
same,proportion of elongated mitochondria,[3]; 12.5 μM,17.8±4.2%
same,"proportion of cells with punctate, fragmented mitochondria","[3]; 12.5 μM, normoxic",64.4±9.5%
same,perinuclear mitochondria,[3]; 3 days treatment + 3 days recovery (FIG. 4C),enriched
same,proportion of cells with healthy elongated mitochondria,[3],reduced
same,ATP6 mRNA expression,[15],dose-dependently and significantly reduced
same,COX6A2 mRNA expression,[15],dose-dependently and significantly reduced
same,ND1 mRNA expression,[15],dose-dependently and significantly reduced
same,ND5 mRNA expression,[15],dose-dependently and significantly reduced
COc1nc(N)nc2c1ncn2[C@@H]1O[C@H](COP(=O)(N[C@@H](C)C(=O)OCC(C)(C)C)Oc2cccc3ccccc23)[C@@H](O)[C@@]1(C)O (some centres unmarked) [BMS-986094],mitochondrial morphology (MTDR dye),[3],punctate (arrowhead) or perinuclear (arrow) mitochondria
same,proportion of cells with healthy elongated mitochondria,[3],reduced
β-D-N4-hydroxycytidine,mitochondrial morphology (MTDR dye),[3],punctate (arrowhead) or perinuclear (arrow) mitochondria
same,proportion of cells with healthy elongated mitochondria,[3],reduced
COc1cc(-n2c(=S)[nH]c3ccccc3c2=O)c(Cl)cc1Cl [mdivi-1],sarcomeres (MLC2V-eGFP),[6]; MD 15 mM co-treatment vs remdesivir alone (FIG. 5D),more striated sarcomeres
same,sarcomere arrangement,[6]; co-treatment with 2.5 μM and 12.5 μM remdesivir,improved the sarcomere arrangement
same,redox potential,"[14]; co-treatment with 2.5 μM remdesivir, normoxic and hypoxic",restored redox potential
same,redox potential,[14]; [16],did not have noticeable effect
same,proportion of cells with elongated mitochondria,"[3]; MD 15 mM, (FIG. 5B)",increased the proportion of cells with elongated mitochondria
same,formation of elongated mitochondria vs remdesivir alone,"[3]; co-treatment with 2.5 μM remdesivir, normoxic",significantly promoted the formation of elongated mitochondria
same,protection of mitochondrial morphology,[3]; [16],could only significantly protect hiPSC-CMs under hypoxic but not normoxic conditions
same,proportion of cells with punctate mitochondria vs remdesivir alone,"[3]; co-treatment with remdesivir, hypoxia",corresponding decrease
